Measured values from US20120196766A1, “Therapeutic Use of Farnesyltransferase Inhibitors and Methods of Monitoring the Efficacy Thereof” (priority 2004, published 2012).

Experiments:
[1] = tested on: THP-1 cells; experiment: Reverse transcriptase and real-time quantitative PCR of LPS-induced transcription in THP-1 cells; assay type: cell-based, Human
Experimental: (§1) THP-1 cells were cultured in RPMI1640 medium, supplemented with 10% FBS/100 units/ml Penicillin/10 μg/ml Streptomycin at 37° C., under 5% CO2. […] For the untreated control group (no LPS, no compound) and LPS alone group, equivalent volumes of DMSO were added to the medium. Cells were cultured at 37° C. and pellets were collected at 0 hr, 1 hr, 3 hr, 6 hr, 12 hr & 24 hr. Cell pellets were stored at −80° C. if RNA isolation was not conducted immediately. For experiments to study cytokine secretion in culture supernatants, THP-1 cells were washed twice with PBS, resuspended at 3.4×10^5/ml and cultured in 96-well plates at 250 μL, per well at 37° C. […] Supernatants were collected at different time points as indicated in the figures and were kept at ≦−20° C. until analysis of cytokine production.
Total RNA was isolated using RNeasy mini kit from QIAGEN (Valencia, Calif.) according to the manufacturer's instructions. RNA samples were stored at −80° C.
Two to three micrograms of DNase-treated total RNA were reverse transcribed to cDNA using the Transcriptor First Strand cDNA Synthesis Kit (Roche Diagnostics Corporation, Indianapolis, Ind.) according to the instructions.
Real-time PCR was carried out with the LightCycler FastStart DNA Master^plus SYBR Green I kit (Roche Diagnostics) according to the manufacturer's instructions.
The PCR profile was as follows: (i) denaturation at 95° C. for 10 min. (ii) 45 cycles of 0 s at 95° C., 5 s at 54-58° C. (depending on Tm of the primers), 6-16 s (determined by the length of amplicon) at 72° C. (iii) melting curves for 0 s at 95° C., 15 s at 65° C. and 0 s at 95° C. (iv) cooling at 40° C. for 30 s. Transition rates were: 20° C./s for all steps except 0.1° C./s for 95° C. segment 3 of the melting curves.
For data analysis, the baseline adjustment was carried out in the “arithmetic” mode, and the fluorescence curve analysis was carried out in the “Second Derivative Maximum” mode of the LightCycler™ software (Version 3.5).
The primers used for real-time PCR were as follows (5′ to 3′): […]

[2] = tested on: THP-1 cells; experiment: LPS-induced cytokine, chemokine and MMP-9 secretion by THP-1 cells (ELISA); assay type: cell-based, Human
Experimental: as §1
Human IL-6, IL18, IL1β, MCP-1, MMP-9, and mouse IL-6, IL18, TNFα, MCP-1 and IL-1β were measured with ELISA kits (R&D Systems) according to the manufacturer's instructions.
Samples were tested for cytokines using the Bio-plex cytokine assay kit (Bio-Rad Laboratories, Inc.) according to the manufacturer's instructions. Briefly, 50 μL anti-cytokine antibody conjugated beads were added to wells of a filter plate pre-equilibrated with assay buffer. The beads were washed, then 50 μL of undiluted cell culture supernatant or 4-fold diluted plasma samples were added and incubated for 2 hours. Biotinylated anti-cytokine antibody (25 μL) was added to each well and the plate was incubated with shaking for 1.5 hours. Streptavidin-PE (50 μL) was added to each well and the plate was incubated with shaking for 45 min. between incubations, wells were washed 3 times with 100 μL wash buffer and unbound analytes were filtered using a vacuum manifold. Following the last wash step, 125 μL of assay buffer was added to each well and the plate was placed on a shaker for 10 min. The plate was read on a Luminex^100 instrument (Luminex Corporation, Austin, Tex.) according to the manufacturer's instructions. The concentration of cytokine was determined from a standard curve assayed at the same time.

[3] = cited from earlier work
[4] = cited from earlier work; remark: listed apart in the source
[5] = tested on: THP-1 cells; experiment: Inhibition of LPS-induced IL-6 release in THP-1 cells, concentration series; assay type: cell-based; conditions: Homo sapiens, 100 ng/ml LPS, 0.5% FBS, supernatants at 48 hr, read-out: IC50 for inhibition of LPS-induced IL-6 secretion
Experimental: THP-1 cells at 3.4×10^5/ml were cultured in 96-well plates in 0.5% FBS/RPMI 1640, in the absence or presence of 100 ng/ml LPS, plus or minus tipifarnib (starting from 5 μM, followed by 3-fold series dilution). The concentrations of tipifarnib were: 5 μM, 1.67 μM, 0.56 μM, 0.19 μM and 0.06 μM. Supernatants were collected at 48 hr. IL6 was quantified using ELISA kit from R&D Systems.
Medium components were certified to contain less than 0.3 endotoxin units/ml. THP-1 cells at 3.4×10^5/ml were cultured in 96-well plates in 0.5% FBS/RPMI 1640, in the absence or presence of 100 ng/ml LPS plus or minus tipifarnib (starting from 5 μM, followed by 3-fold series dilution). The concentrations of tipifarnib were: 5 μM, 1.67 μM, 0.56 μM, 0.19 μM and 0.06 μM. Supernatants were collected at 48 hr. IL6 was tested using ELISA kit from R&D Systems.

[6] = tested on: NF-κB-LH transfected HEK293 cells; experiment: NF-κB reporter gene assay; assay type: cell-based; conditions: tipifarnib 2 or 5 μM for 18 hours, TNF-α 10 ng/ml for 4 hours
Experimental: HEK293 cells were transfected with the NF-κB-LH plasmid (Biomyx) using Lipofectamine 2000, and stable clones were selected by culture in hygromycin (176 μg/ml). The resulting NF-κB-LH-transfected cells were seeded in DMEM/10% FCS in 96-well plates for use in luciferase reporter assays. On the following day, cells were treated with tipifarnib for 18 hours, then stimulated with TNF-α (10 ng/ml) for 4 hours, after which NF-κB activity was measured using the Steady-Glo® luciferase reporter assay system (Promega). NF-κB activation was calculated as the fold-induction by TNF-α over unstimulated control samples.

[7] = tested on: cachexia; conditions: US 2004/0157773, WO 02/085364; cited from earlier work
[8] = tested on: dextran sodium sulphate-induced colitis; conditions: WO 02/43733; cited from earlier work
[9] = simvastatin 10 μM or tipifarnib 5 μM, 6 and 12 hours

## Cn1cncc1C(N)(c1ccc(Cl)cc1)c1ccc2c(c1)c(-c1cccc(Cl)c1)cc(=O)n2C (single isomer, unassigned; (+)) [tipifarnib, (+)-6-[amino(4-chlorophenyl)(1-methyl-1H-imidazol-5-yl)methyl]-4-(3-chlorophenyl)-1-methyl-2(1H)-quinolinone]
[1]; [9]
  Induction of IL-8 by LPS: no significant effect
  STAT1 induction by LPS: inhibited
[1]; simvastatin 10 μM or tipifarnib 5 μM, 3 hours
  Induction of IL-8 by LPS: unaffected
[1]; simvastatin 10 μM or tipifarnib 5 μM, 6 hours
  peak of LPS-induced IL-6 transcription: inhibition
[1]; simvastatin 10 μM or tipifarnib 5 μM, 12 hours
  LPS-induced IL-6 transcription: inhibition
[1]; simvastatin 10 μM or tipifarnib 5 μM, after 6 and 12 hours
  LPS-induced IL-1β transcription: significantly downregulated
[1]; simvastatin 10 μM or tipifarnib 5 μM, from 6 hours
  LPS-induced MCP-1 transcription: inhibited significantly
[1]; simvastatin 10 μM or tipifarnib 5 μM, up to 3 hours
  LPS-induced IL-1β transcription: unaffected
[1]; tipifarnib 5 μM, 6 and 12 hours
  MyD88 induction by LPS: almost complete inhibition
[1]; tipifarnib 5 μM, 12 hours
  MMP-9 induction by LPS: no induction
[2]; after 22 h up to 48 hours
  LPS-induced TNF-α production, second phase of induction: dose-dependent inhibition
[2]; between 5 and 10 hours
  LPS-induced TNF-α production, initial peak: unaffected
[2]; simvastatin 5 and 10 μM or tipifarnib 2 and 5 μM, 22, 30 and 48 hours
  LPS-induced IL-8 production: no significant inhibition of IL-8 production, except for 5 μM at 22 hours
[2]; simvastatin 5 and 10 μM or tipifarnib 2 and 5 μM, 30 and 48 hours
  LPS-induced MMP-9 secretion: dose-dependently inhibited
[2]; tipifarnib 2 μM
  extent of inhibition of MCP-1 secretion compared with 10 μM simvastatin: much greater
[2]; tipifarnib 5 μM
  LPS-induced TNF-α production, second phase of induction: totally inhibited
[2]; tipifarnib 2 and 5 μM
  IL-1β secretion: dose-dependent inhibition
  inhibition of IL-6 release: inhibition was observed at all time points
[2]; tipifarnib 2 and 5 μM, up to 48 hours
  MCP-1 secretion: dose-dependent inhibition
[3]; at 300 mg twice a day (Karp, Lancet et al. 2001)
  plasma levels: approximately 2 μM
[3]; in a number of studies (Head and Johnston 2003)
  maximum tolerated dose: 300 mg twice a day
[4]
  protein binding: highly protein-bound
[5]
  IC50: ~1000 nM
[6]
  TNF-α induced NF-κB activity: not inhibited
[7]
  cachexia: inhibition
[8]
  disease scores: reduction of disease scores
